Experimental data from patent publication US20100035868A1, “METHODS OF TREATMENT OF UTERINE PATHOLOGICAL CONDITIONS” (MEDICAL RESEARCH COUNCIL, priority 2001, published 2010).
Where two headings read alike, the source gives them in different places.

Columns and labels:
[1] = molecular target: T1, COX-2 (Homo sapiens, UniProt P35354); details: cited from earlier work
T1 sequence (P35354 18-604): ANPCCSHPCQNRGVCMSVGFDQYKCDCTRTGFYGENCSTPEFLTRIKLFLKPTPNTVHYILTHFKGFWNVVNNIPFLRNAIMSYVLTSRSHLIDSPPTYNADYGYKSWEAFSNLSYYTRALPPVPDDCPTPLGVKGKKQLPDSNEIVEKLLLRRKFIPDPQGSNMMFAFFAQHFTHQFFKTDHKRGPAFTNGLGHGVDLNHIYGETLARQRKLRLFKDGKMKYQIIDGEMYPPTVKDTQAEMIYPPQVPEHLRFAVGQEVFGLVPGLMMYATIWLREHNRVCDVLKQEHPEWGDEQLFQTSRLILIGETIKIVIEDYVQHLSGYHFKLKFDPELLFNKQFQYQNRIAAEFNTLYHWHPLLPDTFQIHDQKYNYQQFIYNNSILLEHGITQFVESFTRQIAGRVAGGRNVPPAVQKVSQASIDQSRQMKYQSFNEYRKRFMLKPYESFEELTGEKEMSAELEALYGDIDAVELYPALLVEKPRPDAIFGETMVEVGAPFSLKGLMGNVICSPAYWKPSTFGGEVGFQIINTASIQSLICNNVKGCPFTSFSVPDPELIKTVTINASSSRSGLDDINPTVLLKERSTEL

[2] = system: EP2/EP4 receptors; assay: cAMP generation in cultured endometrial adenocarcinoma tissue after PGE2 stimulation; assay type: cell-based, human; details: endometrial adenocarcinoma tissue (n=6), 300 nM PGE2 for 5 min, IBMX 1 mM; treated/untreated
Method: (§1) In vitro culture and cAMP measurement. Endometrial tumour tissue (n=6; two well, two moderately and two poorly differentiated adenocarcinomas) and normal secretory phase endometrium (n=6) were minced finely with scissors and incubated in 2 ml RPMI (Sigma) medium containing 10% fetal calf serum, 0.3 mg/ml L-glutamine, 100 IU penicillin, 100 μg streptomycin and 3 μg/ml indomethacin, for 1.5 hrs at 37C in humidified 5% CO2. Thereafter samples were incubated in the same medium containing IBMX (Sigma) to a final concentration of 1 mM for 30 min at 37C and then stimulated for 5 min with 300 nM PGE2. Control treatments received no PGE2. Tissue was harvested by centrifugation at 2000 g. The supernatant was discarded and the tissue homogenised in 0.1 M HCl. cAMP concentration was quantified by ELISA using a cAMP kit (Biomol; Affiniti, Exeter, UK) and normalised to protein concentration of the homogenate. Protein concentrations were determined using protein assay kits (Bio-Rad, Hemel Hempstead, UK). The data are presented as fold induction of cAMP following treatment with PGE2. Fold induction was calculated by dividing cAMP values for the PGE2-treated samples by the value for the untreated sample.

[3] = system: EP2/EP4 receptors; assay: cAMP generation in cultured normal secretory phase endometrium after PGE2 stimulation; assay type: cell-based, human; details: normal secretory phase endometrium (n=6), 300 nM PGE2 for 5 min, IBMX 1 mM; treated/untreated
Method: as §1

## CS(=O)(=O)Nc1cc2c(cc1Sc1ccc(F)cc1F)C(=O)CC2 [L 475 L337]
[1]; COX-2 versus COX-1
  more specific for COX-2 inhibition than for COX-1 inhibition: 500 fold

## CS(=O)(=O)Nc1ccc([N+](=O)[O-])cc1Oc1ccccc1 [Nimesulide, N-(4-nitro-2-phenoxyphenyl)methane sulfonamide]
[1]
  more specific for COX-2 inhibition than for COX-1 inhibition: 100 fold

## CCCCC[C@H](O)/C=C/[C@H]1[C@H](O)CC(=O)[C@@H]1C/C=C\CCCC(=O)O [PGE2, prostaglandin E2]
[2]
  fold induction of cAMP generation in response to PGE2: 3.42±0.46
[3]
  fold induction of cAMP generation in response to PGE2: 1.15±0.05
